Test results reported in patent US9999690B2, “Labeled compounds and methods of imaging, diagnosing cartilage disorders and diseases, and monitoring cartilage health using labeled and unlabeled compounds” (Perosphere Inc., priority 2013, dated 2018).

What was measured:
[1] = Tissue distribution of radioactivity by Quantitative Whole-Body Autoradiography (QWBA), Group 4; format: in vivo; settings: rat
Description: A study was conducted to determine the pharmacokinetics, rates and routes of excretion with mass baseline and tissue distribution of radioactivity, after a single intravenous dose administration of formula XIII (also referred to as [^14C]DAP) was administered to the rats by tail vein intravenous injection at a
The study was conducted on 19 male rats divided into 4 groups. The first group of 6 rats was used for blood collection (Group 1); the second group of 4 rats was used for urine, feces, cage rinses and wipes and carcasses collection (Group 2); the third group of 4 rats was used for expired air collection (Group 3); the fourth group of 5 rats was used for terminal blood/serum and tissue distribution by Quantitative Whole-Body Autoradiography (QWBA) (Group 4).
For Group 4, formula XIII (QWBA was run at 1, 8, 12, 24 and 72 hours post dose. After terminal blood collection, each euthanized animal was frozen in a hexane/dry ice bath and embedded in a 2% carboxymethylcellulose matrix according to MPI Research SOP ADME-112. The embedded carcasses were sectioned according to MPI Research SOP ADME-113 on a Leica CM3600 Cyromacrotome set to maintain −10 to −30° C. At least four fortified quality control standards of known radioactive concentration were placed into the frozen block prior to sectioning and used for section thickness quality control. The quality control standards were sectioned under the same conditions as the specimen. The intrasection and intersection variation of collected sections were determined by analyzing the quality control standards. Section variation must be less than 20% for quantitative analysis. Sections that were approximately 40μm thick were taken in the sagittal plane. Appropriate sections selected at various levels of interest in the block were collected to encompass the following tissues, organs, and biological fluids, where possible: adrenal gland, bladder (urinary) and contents (urine), blood (cardiac), bone, bone marrow, brain, eye, fat (brown), fat (white), heart, kidney, large intestine/cecum and contents, liver, lung, muscle, pancreas, prostate, salivary glands, skin, small intestine and contents, spleen, stomach and contents, testes, thymus, thyroid, mesenteric lymph nodes, and epididymis. A set of sections were mounted, exposed to phosphor imaging screens and scanned using the Storm 860 image acquisition system according to MPI Research SOP ADME-112. Quantification, relative to the calibration standards, were performed by image densitometry using MCID™ image analysis software according to MPI Research SOP ADME-114. A standard curve was constructed from the integrated response (MDC/mm2) and the nominal concentrations of the [^14C]Glucose calibration standards. Relative error should be less than 0.5 for each point on the curve. The concentrations of radioactivity were expressed as μCi/g and were converted to μg or ng-equivalents of DAP per gram of sample (μg- or ng-eq/g) using the specific activity of administered [^14C]DAP dose formulation. A lower limit of quantification (LLOQ) was applied to the data. The LLOQ was determined using the radioactive concentration of the lowest calibration standard used to generate a calibration curve divided by the specific activity of the dose formulation (μCi/ug). Artifacts, such as those produced by dislodged contents of the alimentary canal, were excluded from analysis during image analysis.

[2] = In vivo toxicity study, rats; settings: rat, read-out: Maximum tolerated dose
Description: A study was conducted to test the toxicity of labeled formula XIII in rats and dogs. Maximum tolerated doses were 40 mg/kg for rats and 35 mg/kg for dogs.

[2H]C1([2H])N(CCCNC(=O)[C@@H](N)CCCNC(=N)N)C([2H])([2H])C([2H])([2H])N(CCCNC(=O)[C@@H](N)CCCNC(=N)N)C1([2H])[2H] [formula XIII]
distribution to cartilage and tissues (autoradiograph) ([1]; 1 hour post dose, FIG. 1): distribute very well to cartilage and tissues
localization in cartilage and tissues (autoradiograph) ([1]; after 8 hours, FIG. 2): no longer localized in all of the regions identifiable in FIG. 1
Concentration of Radioactivity in Bone marrow ([1]; single IV 2 mg/kg, 1 Hour): 6820 ng Equivalents [^14C]DAP/g
Concentration of Radioactivity in Cartilage ([1]; single IV 2 mg/kg, 1 Hour): 62602 ng Equivalents [^14C]DAP/g
Concentration of Radioactivity in Kidney ([1]; single IV 2 mg/kg, 1 Hour): 51966 ng Equivalents [^14C]DAP/g
Concentration of Radioactivity in Kidney (cortex) ([1]; single IV 2 mg/kg, 1 Hour): 55358 ng Equivalents [^14C]DAP/g
Concentration of Radioactivity in Kidney (medulla) ([1]; single IV 2 mg/kg, 1 Hour): 19308 ng Equivalents [^14C]DAP/g
Concentration of Radioactivity in Large intestinal contents ([1]; single IV 2 mg/kg, 1 Hour): BLQ (Below limit of quantitation (<172 ng equivalents [^14C]PER977/g))
Concentration of Radioactivity in Liver ([1]; single IV 2 mg/kg, 1 Hour): 6377 ng Equivalents [^14C]DAP/g
Concentration of Radioactivity in Small intestine ([1]; single IV 2 mg/kg, 1 Hour): 6838 ng Equivalents [^14C]DAP/g
Concentration of Radioactivity in Thymus ([1]; single IV 2 mg/kg, 1 Hour): 10420 ng Equivalents [^14C]DAP/g
Concentration of Radioactivity in Urinary bladder ([1]; single IV 2 mg/kg, 1 Hour): 26725 ng Equivalents [^14C]DAP/g
Concentration of Radioactivity in Urine ([1]; single IV 2 mg/kg, 1 Hour): 195176 ng Equivalents [^14C]DAP/g
Concentration of Radioactivity in Bone marrow ([1]; single IV 2 mg/kg, 8 Hours): 5524 ng Equivalents [^14C]DAP/g
Concentration of Radioactivity in Cartilage ([1]; single IV 2 mg/kg, 8 Hours): 13038 ng Equivalents [^14C]DAP/g
Concentration of Radioactivity in Kidney ([1]; single IV 2 mg/kg, 8 Hours): 43380 ng Equivalents [^14C]DAP/g
Concentration of Radioactivity in Kidney (cortex) ([1]; single IV 2 mg/kg, 8 Hours): 45541 ng Equivalents [^14C]DAP/g
Concentration of Radioactivity in Kidney (medulla) ([1]; single IV 2 mg/kg, 8 Hours): 3454 ng Equivalents [^14C]DAP/g
Concentration of Radioactivity in Large intestinal contents ([1]; single IV 2 mg/kg, 8 Hours): 510 ng Equivalents [^14C]DAP/g
Concentration of Radioactivity in Liver ([1]; single IV 2 mg/kg, 8 Hours): 3150 ng Equivalents [^14C]DAP/g
Concentration of Radioactivity in Small intestine ([1]; single IV 2 mg/kg, 8 Hours): 6643 ng Equivalents [^14C]DAP/g
Concentration of Radioactivity in Thymus ([1]; single IV 2 mg/kg, 8 Hours): 15093 ng Equivalents [^14C]DAP/g
Concentration of Radioactivity in Urinary bladder ([1]; single IV 2 mg/kg, 8 Hours): 1429 ng Equivalents [^14C]DAP/g
Concentration of Radioactivity in Urine ([1]; single IV 2 mg/kg, 8 Hours): 8374 ng Equivalents [^14C]DAP/g
Concentration of Radioactivity in Bone marrow ([1]; single IV 2 mg/kg, 12 Hours): 4948 ng Equivalents [^14C]DAP/g
Concentration of Radioactivity in Cartilage ([1]; single IV 2 mg/kg, 12 Hours): 7749 ng Equivalents [^14C]DAP/g
Concentration of Radioactivity in Cerebellum ([1]; single IV 2 mg/kg, 12 Hours): BLQ (Below limit of quantitation (<172 ng equivalents [^14C]PER977/g))
Concentration of Radioactivity in Cerebrum ([1]; single IV 2 mg/kg, 12 Hours): BLQ (Below limit of quantitation (<172 ng equivalents [^14C]PER977/g))
Concentration of Radioactivity in Gastric mucosa ([1]; single IV 2 mg/kg, 12 Hours): 2118 ng Equivalents [^14C]DAP/g
Concentration of Radioactivity in Kidney ([1]; single IV 2 mg/kg, 12 Hours): 40930 ng Equivalents [^14C]DAP/g
Concentration of Radioactivity in Kidney (cortex) ([1]; single IV 2 mg/kg, 12 Hours): 48959 ng Equivalents [^14C]DAP/g
Concentration of Radioactivity in Kidney (medulla) ([1]; single IV 2 mg/kg, 12 Hours): 2981 ng Equivalents [^14C]DAP/g
Concentration of Radioactivity in Large intestinal contents ([1]; single IV 2 mg/kg, 12 Hours): 4752 ng Equivalents [^14C]DAP/g
Concentration of Radioactivity in Liver ([1]; single IV 2 mg/kg, 12 Hours): 3330 ng Equivalents [^14C]DAP/g
Concentration of Radioactivity in Medulla ([1]; single IV 2 mg/kg, 12 Hours): BLQ (Below limit of quantitation (<172 ng equivalents [^14C]PER977/g))
Concentration of Radioactivity in Small intestine ([1]; single IV 2 mg/kg, 12 Hours): 9975 ng Equivalents [^14C]DAP/g
Concentration of Radioactivity in Spinal cord ([1]; single IV 2 mg/kg, 12 Hours): BLQ (Below limit of quantitation (<172 ng equivalents [^14C]PER977/g))
Concentration of Radioactivity in Stomach contents ([1]; single IV 2 mg/kg, 12 Hours): BLQ (Below limit of quantitation (<172 ng equivalents [^14C]PER977/g))
Concentration of Radioactivity in Thymus ([1]; single IV 2 mg/kg, 12 Hours): 14584 ng Equivalents [^14C]DAP/g
Concentration of Radioactivity in Urinary bladder ([1]; single IV 2 mg/kg, 12 Hours): 1095 ng Equivalents [^14C]DAP/g
Concentration of Radioactivity in Urine ([1]; single IV 2 mg/kg, 12 Hours): 5011 ng Equivalents [^14C]DAP/g
Concentration of Radioactivity in Bone marrow ([1]; single IV 2 mg/kg, 24 Hours): 1987 ng Equivalents [^14C]DAP/g
Concentration of Radioactivity in Eye (lens) ([1]; single IV 2 mg/kg, 24 Hours): BLQ (Below limit of quantitation (<172 ng equivalents [^14C]PER977/g))
Concentration of Radioactivity in Gastric mucosa ([1]; single IV 2 mg/kg, 24 Hours): 1438 ng Equivalents [^14C]DAP/g
Concentration of Radioactivity in Kidney ([1]; single IV 2 mg/kg, 24 Hours): 39548 ng Equivalents [^14C]DAP/g
Concentration of Radioactivity in Kidney (cortex) ([1]; single IV 2 mg/kg, 24 Hours): 40820 ng Equivalents [^14C]DAP/g
Concentration of Radioactivity in Kidney (medulla) ([1]; single IV 2 mg/kg, 24 Hours): 2011 ng Equivalents [^14C]DAP/g
Concentration of Radioactivity in Large intestinal contents ([1]; single IV 2 mg/kg, 24 Hours): 1801 ng Equivalents [^14C]DAP/g
Concentration of Radioactivity in Small intestine ([1]; single IV 2 mg/kg, 24 Hours): 5090 ng Equivalents [^14C]DAP/g
Concentration of Radioactivity in Spinal cord ([1]; single IV 2 mg/kg, 24 Hours): BLQ (Below limit of quantitation (<172 ng equivalents [^14C]PER977/g))
Concentration of Radioactivity in Stomach contents ([1]; single IV 2 mg/kg, 24 Hours): BLQ (Below limit of quantitation (<172 ng equivalents [^14C]PER977/g))
Concentration of Radioactivity in Thymus ([1]; single IV 2 mg/kg, 24 Hours): 11451 ng Equivalents [^14C]DAP/g
Concentration of Radioactivity in Urinary bladder ([1]; single IV 2 mg/kg, 24 Hours): 606 ng Equivalents [^14C]DAP/g
Concentration of Radioactivity in Urine ([1]; single IV 2 mg/kg, 24 Hours): 4553 ng Equivalents [^14C]DAP/g
Concentration of Radioactivity in Blood ([1]; single IV 2 mg/kg, 72 Hours): BLQ (Below limit of quantitation (<172 ng equivalents [^14C]PER977/g))
Concentration of Radioactivity in Bone ([1]; single IV 2 mg/kg, 72 Hours): BLQ (Below limit of quantitation (<172 ng equivalents [^14C]PER977/g))
Concentration of Radioactivity in Bone marrow ([1]; single IV 2 mg/kg, 72 Hours): 841 ng Equivalents [^14C]DAP/g
Concentration of Radioactivity in Cerebellum ([1]; single IV 2 mg/kg, 72 Hours): BLQ (Below limit of quantitation (<172 ng equivalents [^14C]PER977/g))
Concentration of Radioactivity in Epididymis ([1]; single IV 2 mg/kg, 72 Hours): BLQ (Below limit of quantitation (<172 ng equivalents [^14C]PER977/g))
Concentration of Radioactivity in Kidney ([1]; single IV 2 mg/kg, 72 Hours): 18515 ng Equivalents [^14C]DAP/g
Concentration of Radioactivity in Kidney (cortex) ([1]; single IV 2 mg/kg, 72 Hours): 15748 ng Equivalents [^14C]DAP/g
Concentration of Radioactivity in Kidney (medulla) ([1]; single IV 2 mg/kg, 72 Hours): 556 ng Equivalents [^14C]DAP/g
Concentration of Radioactivity in Large intestinal contents ([1]; single IV 2 mg/kg, 72 Hours): 824 ng Equivalents [^14C]DAP/g
Concentration of Radioactivity in Medulla ([1]; single IV 2 mg/kg, 72 Hours): BLQ (Below limit of quantitation (<172 ng equivalents [^14C]PER977/g))
Concentration of Radioactivity in Muscle ([1]; single IV 2 mg/kg, 72 Hours): BLQ (Below limit of quantitation (<172 ng equivalents [^14C]PER977/g))
Concentration of Radioactivity in Seminal vesicles ([1]; single IV 2 mg/kg, 72 Hours): BLQ (Below limit of quantitation (<172 ng equivalents [^14C]PER977/g))
Concentration of Radioactivity in Small intestine ([1]; single IV 2 mg/kg, 72 Hours): 1597 ng Equivalents [^14C]DAP/g
Concentration of Radioactivity in Spinal cord ([1]; single IV 2 mg/kg, 72 Hours): BLQ (Below limit of quantitation (<172 ng equivalents [^14C]PER977/g))
Concentration of Radioactivity in Stomach contents ([1]; single IV 2 mg/kg, 72 Hours): BLQ (Below limit of quantitation (<172 ng equivalents [^14C]PER977/g))
Concentration of Radioactivity in Testes ([1]; single IV 2 mg/kg, 72 Hours): BLQ (Below limit of quantitation (<172 ng equivalents [^14C]PER977/g))
Concentration of Radioactivity in Thymus ([1]; single IV 2 mg/kg, 72 Hours): 8365 ng Equivalents [^14C]DAP/g
Concentration of Radioactivity in Urinary bladder ([1]; single IV 2 mg/kg, 72 Hours): 283 ng Equivalents [^14C]DAP/g
Concentration of Radioactivity in Urine ([1]; single IV 2 mg/kg, 72 Hours): 3866 ng Equivalents [^14C]DAP/g
MTD [2]: 40 mg/kg
